Results: patent publication EP3821949B1, “PHARMACEUTICAL COMPOSITION FOR USE IN THE TREATMENT OF A CANCER ASSOCIATED WITH THE ACTIVATION OF GALECTIN-1” (Trineo Biotechnology Co. Ltd, priority 2019, dated 2021)
“And” between values parts separate entries of the source, which are not always exact repeats. Equal values may be shown once.

Columns and labels:
Format in all cases: cell-based
[1] = test system: myeloma ARH-77 cells; assay: MTT assay on myeloma ARH-77 cells, chemotherapeutic drug alone or combined with TN-GL-01 or a comparative drug; details: for IC50: Homo sapiens, ARH-77 cells, chemotherapeutic agent alone (control)
Method: (§1) Ovarian cancer cell ES-2 and myeloma cell line ARH-77 were used in the present disclosure. Cells was cultured and maintained in Dulbecco's modified Eagle media (DMEM) supplemented with 10 % fetal bovine serum (FBS), 100 IU/ml penicillin, […] streptomycin, 2 mM glutamine, nonessential amino acids and sodium pyruvate in 5% CO2 at 37 °C. Cells were grown and maintained in Petri dishes (each was 10 cm in diameter) until they reached 80% confluence, and then were subject to cell passages. Briefly, cells were first washed with phosphate buffer solution (PBS, 3 ml) once, then treated with 0.05% Trypsin/0.025% EDTA solution (1 mL) for 5 min so that the attached cells become suspended. The suspended cells were harvested and 2 mL fresh culture media were added therein to neutralize any remaining activity of trypsin. Cell density was adjusted by adding appropriate amounts of culture medium to the cell suspension, which was then used to seed the culture plates. The plates were then returned to the incubator, and cultured in accordance with the steps described above.
Cells were seeded in 96-well plates with a density of 3,000 cells/well and cultured in accordance with the procedures described above. On the day when cell activity analysis was to be conducted, cells were first treated with various concentrations of the triterpenoids of the present disclosure, imatinib or gefitinib for at least 48 hrs, before subjecting them to MTT assay.
(§2) 50 µL of the MTT stock solution (5 mg MTT dissolved in 1 ml of sterile PBS) was added to each well, and 50 µL of the MTT stock solution was added to 500 µL of medium alone and used as a negative control. Each sample was incubated at 37°C for 4 hours. Aliquots (450 µl) from each sample were taken to a new well of 48-well culture plate, adding 100µL DMSO, mixing thoroughly using the pipette and reacted at 37°C for 20 min and absorbance was measured at 570 nm.
In this example, the effect of TN-GL-01 composition of example 1.1 on the cell killing effect of a chemotherapeutic drug (i.e., etoposide, doxorubicin, cisplatin, and paclitaxel) on myeloma ARH-77 cells was investigated, in which cyclophosphamide served as a comparative drug. Results are summarized in Tables 1 to 3, and Figures 3 and 4.
To determine the effects of combined use of TN-GL-01 and any other three drugs including paclitaxel, doxorubicin, and cisplatin, the statistical differences between expected value and oberved value of the survival rate were calculated. If no significantance existed between the expected and observed values, the effect is termed"additivity (p > 0.05)". […] The expected value was determined by multifying the survival rate of each drug in specific dose. The obtained value and value of each survival rate were measured by MMT assay (Fig. 3 and Fig. 4).

[2] = test system: galectin-1; assay: Western blot analysis of galectin-1 expression in ES-2 cells; details: Figure 2
Method: Samples were respectively subjected to SDS-PAGE, transferred to PVDF membranes. These blots were blocked with 5% nonfat milk powder in TBS-0.1% Tween-20 for 30 minutes, followed by incubation with primary antibodies at 4°C overnight and then horseradish peroxidaseconjugated secondary antibodies (Amersham Biosciences, Piscataway). Imaging of bands was performed using Pierce ECL Western Blotting Substrate (Thermo Fisher Scientific) and ImageQuant LAS-4000 (GE Healthcare).
In this example, the effects of TN-GL-01 composition on the expression of galectin-1 in ERK (extracellular-signal-regulated kinase) pathway was invesigated via western blot analysis. […] Thus, it was concluded that the present TN-GL-01 composition exerted its function through suppression of galectin -1.

[3] = test system: ES-2 cells; assay: MTT assay (cell activity analysis) on ovarian cancer ES-2 cells; details: treatment at least 48 hrs
Method: as §1, with “The suspended cells were harvested and 2 mL fresh culture media were added therein to neutralize any remaining activity of trypsin. Cell density was adjusted by adding appropriate amounts of culture medium to the cell suspension, which was then used to seed the culture plates. The plates were then returned to the incubator, and cultured in accordance with the steps described above.” left out
as §2, with “Each sample was incubated at 37°C for 4 hours.” left out
The effects of the TN-GL-01 composition of example 1.1 on ovarian cancer cells (i.e., ES-2 cells) were evaluated by MTT assay in accordance with procedures described in the "Material and Methods" section.

[4] = Table 2, second agent alone: TN-GL-01 20 µg/mL, Doxorubicin 100 nM, Cisplatin 3 µM
[5] = Table 3, second agent alone: TN-GL-01 20 µg/mL, Paclitaxel 40 µM, Cisplatin 3 µM

SMILES: N.N.[Cl][Pt][Cl] [Cisplatin]
- Cell Survival Rate, single drug (factor of expected value) [1, 4]: 0.65
- Cell Survival Rate, single drug (factor of expected value) [1, 5]: 0.69

SMILES: COc1cccc2c1C(=O)c1c(O)c3c(c(O)c1C2=O)C[C@@](O)(C(=O)CO)C[C@@H]3O[C@H]1C[C@H](N)[C@H](O)[C@H](C)O1 [Doxorubicin]
- IC50 [1]: 99 nM
- Cell Survival Rate, single drug (factor of expected value) [1, 4]: 0.58

SMILES: COc1cc([C@@H]2c3cc4c(cc3[C@@H](O[C@@H]3O[C@@H]5CO[C@@H](C)O[C@H]5[C@H](O)[C@H]3O)[C@H]3COC(=O)[C@H]23)OCO4)cc(OC)c1O [Etoposide]
- IC50 [1]: 415 nM

SMILES: C/C(=C/CC[C@@H](C)[C@H]1CC[C@@]2(C)C3=CC[C@H]4C(C)(C)C(=O)CC[C@]4(C)C3=CC[C@]12C)C(=O)O [GAS, ganoderic acid S]
- expression of galectin-1 [2]: effective in suppressing
- 50% inhibition of ES-2 cells (IC50) [3]: 58.3 µg/mL

SMILES: CC(=O)O[C@@H](C/C=C(\C)C(=O)O)[C@@H](C)[C@H]1C[C@H](OC(C)=O)[C@@]2(C)C3=CC[C@H]4C(C)(C)[C@H](OC(C)=O)CC[C@]4(C)C3=CC[C@]12C [GAT, ganoderic acid T]
- expression of galectin-1 [2]: effective in suppressing
- 50% inhibition of ES-2 cells (IC50) [3]: 24.5 µg/mL

SMILES: CC(=O)O[C@H]1C(=O)[C@@]2(C)[C@H]([C@H](OC(=O)c3ccccc3)[C@]3(O)C[C@H](OC(=O)[C@H](O)[C@@H](NC(=O)c4ccccc4)c4ccccc4)C(C)=C1C3(C)C)[C@]1(OC(C)=O)CO[C@@H]1C[C@@H]2O [Paclitaxel]
- Cell Survival Rate, single drug (factor of expected value) ([1]; Table 2, Paclitaxel 62.5 nM alone): 0.68 × 0.82 = 0.56±0.03 and 0.68
- Cell Survival Rate, single drug (factor of expected value) ([1]; Table 2, Paclitaxel 125 nM alone): 0.50 × 0.82 = 0.41±0.03 and 0.50
- Cell Survival Rate, single drug (factor of expected value) [1, 5]: 0.65
